This note sets out measurements from patent US6538151B1, “Modifications of 2-amino-4-(4-fluorobenzylamino)-1-ethoxycarbonylaminobenzene, and processes for their preparation” (Asta Medica Aktiengesellschaft, priority 1997, dated 2003).

What all share (type): physicochemical
The nature of series [1]: Stability of the crystal structure (lattice) on heating and storage. As to the method:
The crystal structure is stable up to approx. 80° C.

A short description of series [2]: Lattice stability on contact with solvents. As to conditions: contact with solvents such as water, ethanol, acetone or toluene.
Series [3] can be described thus: Solubility behaviour of the crystals. As to conditions: finely granular crystals. From the text: The modifications B and C can be employed for specific pharmaceutical forms such as capsules and dry ampoules.

Structures are written as SMILES.

As to `CCOC(=O)Nc1ccc(NCc2ccc(F)cc2)cc1N` [modification A, 2-amino-4-(4-fluorobenzylamino)-1-ethoxycarbonylaminobenzene], the “lattice changes after storage” value in series [1] (relatively long storage at temperatures up to 60° C. and relative atmospheric humidities up to 70%) is reported as “no lattice changes are observed”. Besides, in series [1] (solid state, temperature limit of lattice stability), the “crystal structure is stable up to (temperature)” value is “approx. 80 °C”. Besides, in series [2], the “lattice change on contact with solvents” value is “no lattice change”.

As to `CCOC(=O)Nc1ccc(NCc2ccc(F)cc2)cc1N` [modification C, 2-amino-4-(4-fluorobenzylamino)-1-ethoxycarbonylaminobenzene], in series [3], the “speed of dissolution of crystals” value was “particularly rapidly soluble”.
